Data as given in patent publication US11400160B2, “Multifunctional conjugates” (E.P.O.S IASIS Research and Development Limited, priority 2017, dated 2022).
“Also recorded” adds a separate entry of the source. Like-named read-outs stand apart in the source and are kept apart here.

Tests used:
mouse neonatal calvariae = assay: Calvarial organotypic bone growth assay (ex vivo); parameters: species or system mouse (Balb/c); settings: ex vivo culture 10 days, FIG. 7; for bone formation in calvariae: above free BP or untreated
Method: Anexvivo model of cultured mouse neonatal calvariae to assess bone anabolic activity of each compound was performed as previously described by Garrett, I et al., (Methods Mol Med, 2003. 80: p. 183-198).
Briefly fifteen newborn, 4 day old Balb/c pubs were used for these experiments. Calvarial bones were dissected under sterile conditions and placed on sterile grids in 12 well plates containing culture media. Calvarial bones were cultured for 10 days in the presence of free γToc, BP-γToc or free BP. Bone morphogenetic protein 2 (BMP-2) was used as a positive control, with known bone anabolic activity in this assay.
Treatments were carried out in quadruplicate as shown below. Calvarial bones were embedded in paraffin wax and sections were stained with haematoxylin and eosin stain (H&E) and analysed using the nanozoom image analysis software.
• Untreated • Bpp(OEt) (BP) (15 μM) • BP (20 μM) • γ-Tocotrienol (15 μM) • γ-Tocotrienol (20 μM) • γ-Tocotrienol (100 μM) • BP-γ-tocotrienol conjugate (15 μM) • BP-γTocotrienol conjugate (20 μM) • BP-γ-Tocotrienol conjugate (100 μM) • BMP-2 (50 ng/ml)
New bone formation in treated calvariae was assessed by histological assessment of stained sections.

[1] = system: osteoclasts from RAW264.7 and Human PBMC; assay: Resorption on pre-loaded whale dentine / osteologic slides (pit formation); type: cell-based, murine; settings: for effect on differentiation and activity of osteoclasts: summary statement
Description: Zoledronic acid was used as control.
Human peripheral blood mononuclear cells (PBMCs) and the RAW264.7 murine monocytic cell line were differentiated into osteoclast-like cells in the presence of RANKL plus M-CSF and have been used as model systems of osteoclastogenesis. Osteoclast-like cells, from Giant Cell Tumours (GCT) of bone specimens from three independent donors were used to investigate the effect of compounds of the invention on the bone resorbing activity of mature osteoclasts.
Human PBMCs were isolated from normal healthy donors isolated from the buffy coats acquired from the local Red Cross Blood Service. The cells were diluted in Hanks Balanced Salt Solution (HBSS) and separated by gradient centrifugation with Lymphoprep™. Isolated cells were resuspended in α MOD, 10% FCS, L-glutamine (2 mM), Hepes (20 mM), supplemented with M-CSF (25 ng/ml), 1α,25(OH)2 vitamin D3 (10 nM) and dexamethasone (10 nM) and plated into 96-well plates containing whale dentine slices, for the bone resorption assay or directly into wells for TRAP staining. The following day, media were removed and replaced with media as above, supplemented with RANKL (100 ng/ml) in the presence or absence of increasing concentrations of compounds of the invention. Medium and treatments were replaced every three days.
Cells were cultured in 96-well plates at a density of 1×10^4 cells/well in DMEM medium with 10% FCS, L-glutamine (2 mM) and Hepes (20 mM). Cells were allowed to attach for 4 hrs before treatment with RANKL (50 ng/ml) in the presence or absence of increasing concentrations of compounds of the invention as above. Medium and treatments were replaced on day three and TRAP activity determined on day 5. The overall number of viable cells were determined by crystal violet staining.
Whale dentine slices will be washed in extran, rinsed with distilled water, washed in 70% ethanol and dried overnight. The dentine slices mounted on stubs, carbon-coated and visualised on a Philips XL-20 scanning electron microscope, (SEM) as previously described. Images will be analysed using ImageQuant software and the area of resorption determined for each dentine slice (quadruplicate dentine slices for each treatment). Results are expected to be average resorption area +/− standard errors of the mean (SEM) and the significant differences between treatments will be determined using Students t-tests (2-tailed, unpaired).
(§1) In a separate experiment, pre-loaded bone slices (whale dentine) or commercial forms of hydroxyapatite (osteologic slides) with either free γ-tocopherol (γToc) or γ-tocopherol-bpp(OEt) (BP-γToc) and then washed away unbound drug.

MCF-7 cells = assay: Cell viability, crystal violet colorimetric assay; type: cell-based; settings: 72 hrs; for IC50: tested at 0.02-0.1 mM, unstarred values
Method: (§2) Immortalised osteolytic metastatic breast cancer cell lines, a) hormone-dependent MCF-7 and b) hormone refractory MDA-MB231, together with the daughter line MDA-MB231TXSA were incubated with 5 gradual concentrations of compounds of the invention as described below. Cell viability was assessed with the crystal violet colorimetric assay and IC50s were evaluated.
(§3) Medium was removed from cell cultures and cells were fixed with 4% v/v formaldehyde for 5 mins at room temperature. Formalin was then removed and CV added for 10 mins at room temperature followed by several washes with dsH2O. Samples were allowed to dry overnight. The following day, 10% acetic acid was added for 15 mins and optical density at 620 nm was measured. Optical densities versus compound concentrations were plotted in graphs and IC50s estimated by linear regression analysis using the WorkOut (VictorX4) software.
MCF-7, MDA-MB231 and MDA-MB231TXSA cells were seeded in 96-well-plates and allowed to attach overnight. […]
(§4) Cells were cultured in the presence of the compounds for 72 hrs and viability was assessed on day 3 by crystal violet assay. The cell lines were selected for their high bone metastatic potential. The fluorescently transfected line MB231TXSA, derived from line MB231 is also used in animal studies (WP7).

[2] = Binding to pre-loaded bone slices / hydroxyapatite after washing; settings: pre-loaded whale dentine or osteologic slides, unbound drug washed away
Description: as §1

MDA-MB231TXSA cells = assay: Cell viability, crystal violet colorimetric assay; type: cell-based; settings: 72 hrs; for IC50: tested at 0.02-0.1 mM, read-out: IC50 values MB231-TXSA
Method: as §2, §3
(§5) MCF-7, MDA-MB231 and MDA-MB231TXSA cells were seeded in 96-well-plates and allowed to attach overnight. The following day media were replaced with fresh media containing the following compounds: Both free tetraethyl methylbisphosphonate (bpp(OEt)) and bpp(OEt) in 1:1 combination with the free chromanol and the biphosphonate conjugates were tested at 5 gradual concentrations of: 0.02, 0.04, 0.06, 0.08 and 0.1 mM.
as §4

MDA-MB231 cells = assay: Cell viability, crystal violet colorimetric assay; type: cell-based; settings: 72 hrs; for IC50: tested at 0.02-0.1 mM
Method: as §2, §3, §5, §4

[3] = system: primary human osteoblast cultures; assay: Osteoblast mineralization (alizarin red, calcium in cell layer); type: cell-based; settings: up to 15 days, osteo-inductive conditions; compared to free BP; alizarin red and calcium; FIG. 6
Method: The effect of free γToc and BP-γToc treatment on osteoblast function, using mineralized bone nodule-forming primary human osteoblast cultures was investigated.
Osteoblasts harvested from human donors at the time of joint replacement surgery were cultured up to 15 days in serum-containing medium under osteo-inductive conditions.

| EC50 (MCF-7 cells; Exp.1, * denotes EC50 value, read-out: EC50 value (starred) MCF-7) | IC50 (MCF-7 cells; Exp.2) | binding to bone substrate / bone mineral [2] | IC50 (MDA-MB231TXSA cells; Exp.1) | IC50 (MDA-MB231TXSA cells; Exp.2, unstarred values) | EC50 (MDA-MB231 cells; Exp.1, * denotes EC50 value, read-out: EC50 value (starred) MB231) | IC50 (MDA-MB231 cells; Exp.2) | IC50 (MCF-7 cells; Exp.1) | EC50 (MDA-MB231TXSA cells; Exp.2, * denotes EC50 value, read-out: EC50 value (starred) MB231-TXSA) | IC50 (MDA-MB231 cells; Exp.1, unstarred values) | Compound | bone formation in calvariae (mouse neonatal calvariae) | effect on differentiation and activity of osteoclasts [1] | matrix-containing mineralized nodules in osteoblast cultures [3] | bone formation compared with free γToc and BMP-2 positive control (mouse neonatal calvariae; listed as BP-γToc) | inhibition of resorption on pre-loaded substrate ([1]; pre-loaded, washed, zoledronic acid as control, FIG. 5) |
| --- | --- | --- | --- | --- | --- | --- | --- | --- | --- | --- | --- | --- | --- | --- | --- |
| 439 µM | 128 µM | not | 97.4 µM | 233 µM | 312 µM | 55.7 µM |  |  |  | Cc1c(O)cc2c(c1C)O[C@](C)(CCC[C@H](C)CCC[C@H](C)CCCC(C)C)CC2 [γ-toc, γ-tocopherol, reference compound] | significantly increased bone formation | inhibitory effect on the differentiation and activity of osteoclasts | progressively increased matrix-containing mineralized nodules |  |  |
|  | 81.5 µM | selectively bound the substrate | 79.3 µM |  |  | 49.7 µM | 114 µM | 189 µM | 124 µM | CCOP(=O)(OCC)C(CCC(=O)Oc1cc2c(c(C)c1C)OC(C)(CCCC(C)CCCC(C)CCCC(C)C)CC2)P(=O)(OCC)OCC (stereo not shown) [γ-toc-bpp(OEt), γ-tocopheryl bisphosphonic ester] | significantly increased bone formation | retains the inhibitory activity on osteoclast differentiation and bone resorption | progressively increased matrix-containing mineralized nodules | far superior to the free γToc; also recorded: even greater than that seen with the BMP-2 positive control | inhibited resorption to an extent comparable with that seen with zoledronic acid |
